Results published in ChEMBL document CHEMBL6127038, “How many organic small molecules might be used to treat COVID-19? From natural products to synthetic agents” (Eur J Med Chem, 2024).

Tested on: SARS-CoV-2
Assay: Antiviral activity against SARS CoV-2 infected in HEK293 cells overexpressing hACE2 assessed as inhibition of viral infection
Assay type: functional, organism-based
Details: Severe acute respiratory syndrome coronavirus 2, HEK293

Q: With `NC(=O)CC[C@H](NC(=O)[C@H](Cc1ccc(O)cc1)NC(=O)[C@H](Cc1ccccc1)N1CCN(C(=O)[C@H](CC(=O)O)NC(=O)[C@@H](N)CCC(=O)O)CC1=O)C(N)=O` as the compound, how does the IC50 read?
A: 15 µM
